Results reported in paper PMC8330742, “New benzothieno[2,3-c]pyridines as non-steroidal CYP17 inhibitors: design, synthesis, anticancer screening, apoptosis induction, and in silico ADME profile studies” (Journal of Enzyme Inhibition and Medicinal Chemistry, 2021).

Key:
[1] = test system: CCRF-CEM; assay: NCI-60 SRB screen; assay type: cell-based; details: Homo sapiens, single dose 10^−5 M, Leukaemia, read-out: Growth inhibition (%)
[2] = test system: SK-OV-3; assay: NCI-60 SRB screen; assay type: cell-based, human; details: Homo sapiens; single dose 10^−5 M; SK-OV-3, Ovarian cancer; read-out: Growth inhibition (%)
[3] = test system: HOP-92; assay: NCI-60 SRB screen; assay type: cell-based, human; details: Homo sapiens; single dose 10^−5 M; HOP-92, Non-small cell lung carcinoma; read-out: Growth inhibition (%)
[4] = test system: panel of 60 cancer cell lines; assay: NCI-60 SRB screen, mean or range over the panel; assay type: cell-based, human; details: Homo sapiens; mean over the cell lines; single dose 10^−5 M; read-out: Mean growth inhibition (%)
[5] = test system: RXF 393; assay: NCI-60 SRB screen; assay type: cell-based, human; details: Homo sapiens; single dose 10^−5 M; RXF 393, Renal cancer; read-out: Growth inhibition (%)
[6] = test system: HL-60(TB); assay: NCI-60 SRB screen; assay type: cell-based, human; details: Homo sapiens; single dose 10^−5 M; HL-60(TB), Leukaemia; read-out: Growth inhibition (%)
[7] = test system: IGROV1; assay: NCI-60 SRB screen; assay type: cell-based, human; details: Homo sapiens, IGROV-1; single dose 10^−5 M; IGROV1, Ovarian cancer; read-out: Growth inhibition (%)
[8] = test system: NCI-H23; assay: NCI-60 SRB screen; assay type: cell-based, human; details: Homo sapiens; single dose 10^−5 M; NCI-H23, Non-small cell lung carcinoma; read-out: Growth inhibition (%)
[9] = test system: SR; assay: NCI-60 SRB screen; assay type: cell-based; details: Homo sapiens, single dose 10^−5 M, Leukaemia, read-out: Growth inhibition (%)
[10] = test system: CAKI-1; assay: NCI-60 SRB screen; assay type: cell-based, human; details: Homo sapiens; single dose 10^−5 M; CAKI-1, Renal cancer; read-out: Growth inhibition (%)
[11] = test system: SK-MEL-28; assay: NCI-60 SRB screen; assay type: cell-based; details: Homo sapiens; single dose 10^−5 M; SK-MEL-28, Melanoma; read-out: Growth inhibition (%)
[12] = test system: NCI-H522; assay: NCI-60 SRB screen; assay type: cell-based, human; details: Homo sapiens; single dose 10^−5 M; NCI-H522, Non-small cell lung carcinoma; read-out: Growth inhibition (%)
[13] = test system: HCC-2998; assay: NCI-60 SRB screen; assay type: cell-based, human; details: Homo sapiens; single dose 10^−5 M; HCC-2998, Colon cancer; read-out: Growth inhibition (%)
[14] = test system: HT-29; assay: NCI-60 SRB screen; assay type: cell-based; details: Homo sapiens; single dose 10^−5 M; HT-29, Colon cancer; read-out: Growth inhibition (%)
[15] = test system: 786-0; assay: NCI-60 SRB screen; assay type: cell-based; details: Homo sapiens; single dose 10^−5 M; 786-0, Renal cancer; read-out: Growth inhibition (%)
[16] = test system: NCI/ADR-RES; assay: NCI-60 SRB screen; assay type: cell-based, human; details: Homo sapiens, single dose 10^−5 M, Ovarian cancer, read-out: Growth inhibition (%)
[17] = test system: M14; assay: NCI-60 SRB screen; assay type: cell-based, human; details: Homo sapiens; single dose 10^−5 M; M14, Melanoma; read-out: Growth inhibition (%)
[18] = test system: A549/ATCC; assay: NCI-60 SRB screen; assay type: cell-based, human; details: Homo sapiens, single dose 10^−5 M, Non-small cell lung carcinoma, read-out: Growth inhibition (%)
[19] = test system: SK-MEL-2; assay: NCI-60 SRB screen; assay type: cell-based, human; details: Homo sapiens; single dose 10^−5 M; SK-MEL-2, Melanoma; read-out: Growth inhibition (%)
[20] = test system: LOX IMVI; assay: NCI-60 SRB screen; assay type: cell-based, human; details: Homo sapiens, single dose 10^−5 M, Melanoma, read-out: Growth inhibition (%)
[21] = test system: SF-268; assay: NCI-60 SRB screen; assay type: cell-based, human; details: Homo sapiens; single dose 10^−5 M; SF-268, CNS cancer; read-out: Growth inhibition (%)
[22] = test system: OVCAR-3; assay: NCI-60 SRB screen; assay type: cell-based, human; details: Homo sapiens; single dose 10^−5 M; OVCAR-3, Ovarian cancer; read-out: Growth inhibition (%)
[23] = test system: EKVX; assay: NCI-60 SRB screen; assay type: cell-based, human; details: Homo sapiens, single dose 10^−5 M, Non-small cell lung carcinoma, read-out: Growth inhibition (%)
[24] = test system: TK-10; assay: NCI-60 SRB screen; assay type: cell-based, human; details: Homo sapiens; single dose 10^−5 M; TK-10, Renal cancer; read-out: Growth inhibition (%)
[25] = test system: SW-620; assay: NCI-60 SRB screen; assay type: cell-based; details: Homo sapiens; single dose 10^−5 M; SW-620, Colon cancer; read-out: Growth inhibition (%)
[26] = test system: NCI-H322M; assay: NCI-60 SRB screen; assay type: cell-based, human; details: Homo sapiens, single dose 10^−5 M, Non-small cell lung carcinoma, read-out: Growth inhibition (%)
[27] = test system: HCT-116; assay: NCI-60 SRB screen; assay type: cell-based, human; details: Homo sapiens; single dose 10^−5 M; HCT-116, Colon cancer; read-out: Growth inhibition (%)
[28] = test system: UACC-257; assay: NCI-60 SRB screen; assay type: cell-based, human; details: Homo sapiens; single dose 10^−5 M; UACC-257, Melanoma; read-out: Growth inhibition (%)
[29] = test system: UO-31; assay: NCI-60 SRB screen; assay type: cell-based, human; details: Homo sapiens; single dose 10^−5 M; UO-31, Renal cancer; read-out: Growth inhibition (%)
[30] = test system: SF-295; assay: NCI-60 SRB screen; assay type: cell-based, human; details: Homo sapiens; single dose 10^−5 M; SF-295, CNS cancer; read-out: Growth inhibition (%)
[31] = test system: MALME-3M; assay: NCI-60 SRB screen; assay type: cell-based, human; details: Homo sapiens, single dose 10^−5 M, Melanoma, read-out: Growth inhibition (%)
[32] = test system: HCT-15; assay: NCI-60 SRB screen; assay type: cell-based, human; details: Homo sapiens; single dose 10^−5 M; HCT-15, Colon cancer; read-out: Growth inhibition (%)
[33] = test system: K-562; assay: NCI-60 SRB screen; assay type: cell-based, human; details: Homo sapiens, K562; single dose 10^−5 M; K-562, Leukaemia; read-out: Growth inhibition (%)
[34] = test system: COLO 205; assay: NCI-60 SRB screen; assay type: cell-based, human; details: Homo sapiens; single dose 10^−5 M; COLO 205, Colon cancer; read-out: Growth inhibition (%)
[35] = test system: NCI-H226; assay: NCI-60 SRB screen; assay type: cell-based, human; details: Homo sapiens; single dose 10^−5 M; NCI-H226, Non-small cell lung carcinoma; read-out: Growth inhibition (%)
[36] = test system: UACC-62; assay: NCI-60 SRB screen; assay type: cell-based, human; details: Homo sapiens; single dose 10^−5 M; UACC-62, Melanoma; read-out: Growth inhibition (%)
[37] = test system: ACHN; assay: NCI-60 SRB screen; assay type: cell-based; details: Homo sapiens, single dose 10^−5 M, Renal cancer, read-out: Growth inhibition (%)
[38] = test system: SK-MEL-5; assay: NCI-60 SRB screen; assay type: cell-based, human; details: Homo sapiens; single dose 10^−5 M; SK-MEL-5, Melanoma; read-out: Growth inhibition (%)
[39] = test system: MDA-MB-435; assay: NCI-60 SRB screen; assay type: cell-based; details: Homo sapiens, MDA-MB-435, read-out: Growth inhibition (%)
[40] = test system: HOP-62; assay: NCI-60 SRB screen; assay type: cell-based, human; details: Homo sapiens; single dose 10^−5 M; HOP-62, Non-small cell lung carcinoma; read-out: Growth inhibition (%)
[41] = test system: NCI-H460; assay: NCI-60 SRB screen; assay type: cell-based, human; details: Homo sapiens; single dose 10^−5 M; NCI-H460, Non-small cell lung carcinoma; read-out: Growth inhibition (%)
[42] = test system: KM12; assay: NCI-60 SRB screen; assay type: cell-based, human; details: Homo sapiens; single dose 10^−5 M; KM12, Colon cancer; read-out: Growth inhibition (%)
[43] = test system: OVCAR-4; assay: NCI-60 SRB screen; assay type: cell-based, human; details: Homo sapiens; single dose 10^−5 M; OVCAR-4, Ovarian cancer; read-out: Growth inhibition (%)
[44] = test system: MOLT-4; assay: NCI-60 SRB screen; assay type: cell-based; details: Homo sapiens; single dose 10^−5 M; MOLT-4, Leukaemia; read-out: Growth inhibition (%)
[45] = test system: SN12C; assay: NCI-60 SRB screen; assay type: cell-based, human; details: Homo sapiens, SN12C; single dose 10^−5 M; SN 12 C, Renal cancer; read-out: Growth inhibition (%)

CCN1CCN(C2=C(C#N)c3c(sc4c(F)cccc34)C(c3cccc([N+](=O)[O-])c3)N2)CC1 (stereo not drawn) [Compound 8d, 4-Cyano-3-(4-ethylpiperazin-1-yl)-8-fluoro-1-(3-nitrophenyl)-1,2-dihydro [1]benzothieno[2,3-c]pyridine]
inhibition at 10 µM [1]: -0.37% | inhibition at 10 µM [2]: 11.5% | inhibition at 10 µM [3]: 18.9% | inhibition at 10 µM [4]: 1.33% | inhibition at 10 µM [5]: -3.67% | inhibition at 10 µM [6]: -15.6% | inhibition at 10 µM [7]: 23.7% | inhibition at 10 µM [8]: 3.9% | inhibition at 10 µM [9]: 11.8% | inhibition at 10 µM [10]: 25.2% | inhibition at 10 µM [11]: -15.8% | inhibition at 10 µM [12]: 4.68% | inhibition at 10 µM [13]: -12.2% | inhibition at 10 µM [14]: -4.51% | inhibition at 10 µM [15]: -9.68% | inhibition at 10 µM [16]: -4.88% | inhibition at 10 µM [17]: 4.65% | inhibition at 10 µM [18]: -2.72% | inhibition at 10 µM [19]: 1.77% | inhibition at 10 µM [20]: 4.73% | inhibition at 10 µM [21]: 4.87% | inhibition at 10 µM [22]: -2.65% | inhibition at 10 µM [23]: 12.5% | inhibition at 10 µM [24]: -37% | inhibition at 10 µM [25]: 3.43% | inhibition at 10 µM [26]: 1.85% | inhibition at 10 µM [27]: 1.31% | inhibition at 10 µM [28]: -23.7% | inhibition at 10 µM [29]: 33.5% | inhibition at 10 µM [30]: -1.19% | inhibition at 10 µM [31]: -7.54% | inhibition at 10 µM [32]: -6.34% | inhibition at 10 µM [33]: 4.11% | inhibition at 10 µM [34]: -5.97% | inhibition at 10 µM [35]: 15.7% | inhibition at 10 µM [36]: 6.81% | inhibition at 10 µM [37]: 9.28% | inhibition at 10 µM [38]: -10.7% | inhibition at 10 µM [39]: -7.84% | inhibition at 10 µM [40]: 16.1% | inhibition at 10 µM [41]: -1.12% | inhibition at 10 µM [42]: -0.49% | inhibition at 10 µM [43]: -0.52% | inhibition at 10 µM [44]: 8.62% | inhibition at 10 µM [45]: 1.95%

N#CC1=C(N2CCOCC2)NC(c2cccc([N+](=O)[O-])c2)c2sc3c(F)cccc3c21 (stereo not drawn) [Compound 8e, 4-Cyano-3-(4-morpholino)-8-fluoro-1-(3-nitrophenyl)-1,2-dihydro [1]benzothieno[2,3-c]pyridine]
inhibition at 10 µM [1]: 6.67% | inhibition at 10 µM [2]: 7.67% | inhibition at 10 µM [3]: 11.8% | inhibition at 10 µM [4]: 1.3% | inhibition at 10 µM [5]: -2.93% | inhibition at 10 µM [6]: -16.5% | inhibition at 10 µM [7]: 25.4% | inhibition at 10 µM [8]: 2.35% | inhibition at 10 µM [9]: 9.91% | inhibition at 10 µM [10]: 27.4% | inhibition at 10 µM [11]: -10.6% | inhibition at 10 µM [12]: 8.18% | inhibition at 10 µM [13]: -8.91% | inhibition at 10 µM [14]: -5.64% | inhibition at 10 µM [15]: -9.79% | inhibition at 10 µM [16]: -0.28% | inhibition at 10 µM [17]: -1.97% | inhibition at 10 µM [18]: 0.1% | inhibition at 10 µM [19]: 0.38% | inhibition at 10 µM [20]: 3.9% | inhibition at 10 µM [21]: 7.51% | inhibition at 10 µM [22]: 0.17% | inhibition at 10 µM [23]: 9.9% | inhibition at 10 µM [24]: -59.3% | inhibition at 10 µM [25]: 5.32% | inhibition at 10 µM [26]: 3.9% | inhibition at 10 µM [27]: 8.86% | inhibition at 10 µM [28]: -6.7% | inhibition at 10 µM [29]: 38.4% | inhibition at 10 µM [30]: -6.46% | inhibition at 10 µM [31]: -7.29% | inhibition at 10 µM [32]: -6.78% | inhibition at 10 µM [33]: 9.66% | inhibition at 10 µM [34]: -17.4% | inhibition at 10 µM [35]: 10.4% | inhibition at 10 µM [36]: 6.7% | inhibition at 10 µM [37]: 11.9% | inhibition at 10 µM [38]: -14.6% | inhibition at 10 µM [39]: -7.7% | inhibition at 10 µM [40]: 18% | inhibition at 10 µM [41]: 2.61% | inhibition at 10 µM [42]: 0.52% | inhibition at 10 µM [43]: -2.02% | inhibition at 10 µM [44]: 5.54% | inhibition at 10 µM [45]: 6.28%
